pIC50: −log10 of the molar value.
Tested on: Hs578T complex spheroid growth, percent test/control
Test: Anticancer human tumor Hs578T cell line growth inhibition [AhR];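 further: luminescent viability signal as a proxy for spheroid growth; spheroids exposed to agents for one week after three days of growth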
Settings: for pIC50: curve of first compound; for viability, T/C: stronger effect = lower value
Text: Multicellular complex tumor spheroid response to aryl hydrocarbon receptor antagonists in combination with a variety of drugs and investigational agents in selected tumor cell lines
The current study was undertaken to assess response to aryl hydrocarbon receptor antagonists in combination with standard-of-care drugs and investigational agents in solid tumor complex spheroid models. Complex spheroids include a stromal component modeled by human endothelial cells (HUVEC) and fibroblasts modeled by human mesenchymal stem cells (MSCs). The concentration ranges selected for each drug and investigational agent were based upon clinically achievable concentrations if the clinical Cmax of the agent was known.
Compounds. The drugs and investigational agents: BAY 2416964 (NSC825713), GNF351 (NSC835774), CH-223191 (NSC835775), CPI-455 (NSC825282), aza-TdCyd (NSC777586), decitabine (NSC127716), belinostat (NSC758774), entinostat (NSC756642), pevonedistat (NSC761192), tazemetostat (NSC777109), talazoparib (NSC765396), olaparib (NSC753686), selinexor (NSC780203), nedisertib (M3814, NSC802822), bortezomib (NSC756655), venetoclax (NSC766270), doxorubicin (NSC123127), elimusertib (BAY189344, NSC800525), ceralasertib (AZD6738, NSC777638), TAK-243 (NSC785004), alisertib (NSC759677), etoposide (NSC141540), topotecan (NSC609699), eribulin (NSC707389), gemcitabine (NSC613327), carboplatin (NSC241240), cisplatin (NSC119875), and SN-38 (NSC673596) were obtained from the National Cancer Institute (NCI) Developmental Therapeutics Program Chemical Repository (32). The FDA-approved anticancer drug set is available from the Developmental Therapeutics Program at https://dtp.cancer.gov/organization/dscb/obtaining/available plates.htm. […] The stock solutions were prepared in dimethyl sulfoxide (DMSO, Sigma-Aldrich, St. Louis, MO, cat. D2650), except for the platinum compounds which were prepared in saline (Quality Biological, Gaithersburg, MD, cat. 114-055-101), at 800-fold the tested concentration and stored at -70 degrees C prior to their use. All drugs and investigational agents were tested over a range starting from a high concentration at or near the clinical Cmax and decreasing in half-log increments. If the clinical Cmax for an agent had not been determined, the highest concentration tested was 10 microM (Table 1).
Cell Culture. All cells were maintained in an incubator at 37 degrees C and 5% CO2 with 95% humidity. The PDC lines were cultured according to standard operating procedures established by the NCI PDMR (https://pdmr.cancer.gov). Briefly, all PDCs were thawed and cultured in Matrigel-coated flasks prepared with a working solution of 1X Ham's F-12 nutrient mix, without supplementation (Invitrogen, Waltham, MA, cat. 11765054), 100 U/mL penicillin-streptomycin (Invitrogen, cat. 15140122), and 2.5% Matrigel (Corning Inc., Corning, NY, cat. 354248) for the first three passages. All PDCs were cultured in complete DMEM/F-12 media containing advanced DMEM/F-12 (Invitrogen, cat. 12634028), 4.9% defined fetal bovine serum, heat inactivated (HyClone Laboratories Inc., Logan, UT, cat. SH30070.03HI), 389 ng/mL hydrocortisone (Sigma-Aldrich, cat. H4001), 9.7 ng/mL human EGF recombinant protein (Invitrogen, cat. PHG0313), 23.4 microg/mL adenine (Sigma-Aldrich, cat. A2786), 97.3 U/mL penicillin-streptomycin (Invitrogen, cat. 15140122), 1.9 mM L-glutamine (Invitrogen, cat. 25030081), and 9.7 microM Y-27632 dihydrochloride (Tocris Bioscience, Bristol, United Kingdom, cat. 1254). The PDCs were cultured in complete DMEM/F12 media without 10 microM Y-27632 dihydrochloride for at least two passages prior to the screen. The established cell lines NCI-H1341 and […] were cultured in DMEM/F-12, HEPES (Invitrogen, cat. 11330032), 5% defined fetal bovine serum (HyClone Laboratories Inc., cat. SH30070.03), ITS premix universal culture supplement [insulin (5 microg/mL), transferrin (5 microg/mL), and selenious acid (5 ng/mL)] […]

[1] = second compound 0.1 µM, first compound 0.0316 µM
[2] = second compound 0.1 µM, first compound 0.1 µM
[3] = second compound 0.1 µM, first compound 0.316 µM
[4] = second compound 0.1 µM, first compound 1 µM
[5] = second compound 0.1 µM, first compound 3.16 µM
[6] = second compound 0.1 µM, first compound 10 µM
[7] = second compound 0.316 µM, first compound 0.0316 µM
[8] = second compound 0.316 µM, first compound 0.1 µM
[9] = second compound 0.316 µM, first compound 0.316 µM
[10] = second compound 0.316 µM, first compound 1 µM
[11] = second compound 0.316 µM, first compound 3.16 µM
[12] = second compound 0.316 µM, first compound 10 µM
[13] = second compound 1 µM, first compound 0.0316 µM
[14] = second compound 1 µM, first compound 0.1 µM
[15] = second compound 1 µM, first compound 0.316 µM
[16] = second compound 1 µM, first compound 1 µM
[17] = second compound 1 µM, first compound 3.16 µM
[18] = second compound 1 µM, first compound 10 µM
[19] = second compound 3.16 µM, first compound 0.0316 µM
[20] = second compound 3.16 µM, first compound 0.1 µM
[21] = second compound 3.16 µM, first compound 0.316 µM
[22] = second compound 3.16 µM, first compound 1 µM
[23] = second compound 3.16 µM, first compound 3.16 µM
[24] = second compound 3.16 µM, first compound 10 µM
[25] = second compound 10 µM, first compound 0.0316 µM
[26] = second compound 10 µM, first compound 0.1 µM
[27] = second compound 10 µM, first compound 0.316 µM
[28] = second compound 10 µM, first compound 1 µM
[29] = second compound 10 µM, first compound 3.16 µM
[30] = second compound 10 µM, first compound 10 µM

SMILES: Nc1ccccc1NC(=O)c1ccc(CNC(=O)OCc2cccnc2)cc1 + CC(CO)NC(=O)c1cc(-c2ccc(Cl)cc2)nn(-c2cnn(C)c2)c1=O
- pIC50 (second compound 0.1 µM): 5.79
- pIC50 (second compound 0.316 µM): 5.77
- pIC50 (second compound 1 µM): 5.78
- pIC50 (second compound 3.16 µM): 5.76
- pIC50 (second compound 10 µM): 5.90
- viability, T/C [1]: 124%
- viability, T/C [2]: 122%
- viability, T/C [3]: 108%
- viability, T/C [4]: 68.3%
- viability, T/C [5]: 24%
- viability, T/C [6]: 1.8%
- viability, T/C [7]: 111%
- viability, T/C [8]: 118%
- viability, T/C [9]: 111%
- viability, T/C [10]: 65.8%
- viability, T/C [11]: 30%
- viability, T/C [12]: 1.83%
- viability, T/C [13]: 121%
- viability, T/C [14]: 118%
- viability, T/C [15]: 112%
- viability, T/C [16]: 64.3%
- viability, T/C [17]: 29.6%
- viability, T/C [18]: 2.16%
- viability, T/C [19]: 115%
- viability, T/C [20]: 118%
- viability, T/C [21]: 109%
- viability, T/C [22]: 70.9%
- viability, T/C [23]: 25.9%
- viability, T/C [24]: 2.04%
- viability, T/C [25]: 111%
- viability, T/C [26]: 106%
- viability, T/C [27]: 97.2%
- viability, T/C [28]: 58.2%
- viability, T/C [29]: 16%
- viability, T/C [30]: 0.84%

SMILES: O=C(C=Cc1cccc(S(=O)(=O)Nc2ccccc2)c1)NO + CC(CO)NC(=O)c1cc(-c2ccc(Cl)cc2)nn(-c2cnn(C)c2)c1=O
- pIC50 (second compound 0.1 µM): 5.59
- pIC50 (second compound 0.316 µM): 5.60
- pIC50 (second compound 1 µM): 5.56
- pIC50 (second compound 3.16 µM): 5.62
- pIC50 (second compound 10 µM): 5.64
- viability, T/C [1]: 112%
- viability, T/C [2]: 113%
- viability, T/C [3]: 102%
- viability, T/C [4]: 82.6%
- viability, T/C [5]: 43.2%
- viability, T/C [6]: 2.61%
- viability, T/C [7]: 115%
- viability, T/C [8]: 116%
- viability, T/C [9]: 103%
- viability, T/C [10]: 82.5%
- viability, T/C [11]: 41.8%
- viability, T/C [12]: 2%
- viability, T/C [13]: 109%
- viability, T/C [14]: 117%
- viability, T/C [15]: 106%
- viability, T/C [16]: 89.8%
- viability, T/C [17]: 45.1%
- viability, T/C [18]: 2.32%
- viability, T/C [19]: 106%
- viability, T/C [20]: 113%
- viability, T/C [21]: 107%
- viability, T/C [22]: 80.8%
- viability, T/C [23]: 41.1%
- viability, T/C [24]: 2.02%
- viability, T/C [25]: 93.5%
- viability, T/C [26]: 94.8%
- viability, T/C [27]: 93.6%
- viability, T/C [28]: 70.5%
- viability, T/C [29]: 42.1%
- viability, T/C [30]: 1.62%

From PubChem BioAssay AID1919010 (Molecular Pharmacology Branch, DTP, NCI, 2023)
